Results filed as inconclusive are left out. Activity calls are given as the source filed them. How the calls were made is not given here.
Biological target: Histone acetyltransferase RTT109 (Candida albicans (strain SC5314 / ATCC MYA-2876)) (UniProt Q5AAJ8)
Test: C. albicans Rtt109 HAT inhibition curves – biochemical, cherry-picked hits, plate reader, dose response (AID 588764)
Conditions: Rtt109/Vps75 HAT activity; for activity change, negative = inhibition: at 19.5 µM (top of the series)

Histone acetyltransferase RTT109 (Candida albicans (strain SC5314 / ATCC MYA-2876)), sequence (Q5AAJ8 whole entry, looked up): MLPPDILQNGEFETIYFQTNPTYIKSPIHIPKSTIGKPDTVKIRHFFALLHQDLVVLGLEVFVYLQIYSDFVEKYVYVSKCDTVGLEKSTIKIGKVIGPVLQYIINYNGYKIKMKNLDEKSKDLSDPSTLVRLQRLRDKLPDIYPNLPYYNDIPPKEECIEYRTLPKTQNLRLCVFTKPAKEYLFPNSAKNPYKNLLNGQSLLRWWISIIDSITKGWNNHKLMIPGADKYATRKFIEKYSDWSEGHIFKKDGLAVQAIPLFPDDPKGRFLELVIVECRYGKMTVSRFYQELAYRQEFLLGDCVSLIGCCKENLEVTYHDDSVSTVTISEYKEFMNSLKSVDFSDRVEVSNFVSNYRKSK

Row | Structure (SMILES) | activity change, negative = inhibition | AC50
1 | Cc1cccc(-n2c(O)c(/C=N/NC(=O)c3ccccc3Cl)c3ccccc3c2=O)n1 | inactive | 
2 | COc1cc(SC#N)ccc1N=Cc1c(C)[nH]n(-c2ccc(C)c(C)c2)c1=O | inactive | 
3 | Cc1cc(CN2C(=O)c3ccccc3C2=O)no1 | inactive | 
4 | O=C(Nc1ccc(Cl)c(S(=O)(=O)N2CCCCC2)c1)C1=COCCO1 | inactive | 
5 | O=C(CSc1nnc2ccccn12)NNC(=O)c1cccc(Cl)c1 | inactive | 
6 | O=C(CSc1nnc(Cc2cccs2)n1C1CCCCC1)N1CCN(C(=O)c2ccco2)CC1 | inactive | 
7 | O=C(O)C(Cc1ccccc1)N1C(=O)/C(=C/c2cccs2)SC1=S (centres undefined) | inactive | 
8 | CC(=O)c1cccc(S(=O)(=O)N2CCC(C(=O)O)CC2)c1 | inactive | 
9 | CC(=O)NC(CC(=O)NC1CCCc2ccccc21)c1ccccc1 (centres undefined) | inactive | 
10 | COc1ccc2nc(NC(=O)CN3C(=O)NC4(CCCCC4)C3=O)sc2c1 | inactive | 
11 | CCCCS(=O)(=O)c1sc2nc(C)cc(C)c2c1N | inactive | 
12 | COc1cc(/C=N/N=C(N)N)ccc1OCc1ccccc1Cl | inactive | 
13 | CCCCCCCCCn1c2c(c(=N)c3c1CCC3)CCC2 | inactive | 
14 | COc1cccc(-c2ccc(C#N)c(SCC(=O)NCCc3ccc(Cl)cc3)n2)c1 | inactive | 
15 | COc1ccc(OC)c2sc(N(CCCN(C)C)C(=O)CCS(=O)(=O)c3ccccc3)nc12 |  | 20.1 µM
16 | Cc1ccccc1N1C(S)=C(C#N)C(=O)NC12CCCCC2 | inactive | 
17 | Cc1ccc2c(c1)sc(C)[n+]2CCCS(=O)(=O)[O-] | inactive | 
18 | Cc1ccc(S(=O)(=O)N/N=C\C=C\c2ccccc2)cc1 | inactive | 
19 | Cc1ccc(NC(=O)Cn2sc3nc(C)cc(C)c3c2=O)c(Cl)c1 |  | 0.831 µM
20 | CCc1ccccc1NC(=O)C1CCN(C(=O)c2ccc([N+](=O)[O-])cc2)CC1 | inactive | 
21 | CCC(C)NC(=O)C1CCN(S(=O)(=O)c2cc([N+](=O)[O-])ccc2Cl)CC1 (centres undefined) | inactive | 
22 | O=C(Nc1ccccc1Cl)/C(Cl)=C(\Cl)S(=O)c1ccccc1 (centres undefined) |  | 8.62 µM
23 | O=C(C1CCCO1)N1CCN(C(=S)Nc2ccc(Cl)cc2Cl)CC1 (centres undefined) | inactive | 

Row | Structure (SMILES) | activity change, negative = inhibition | AC50
24 | CCOC(=O)c1ccc(N=C2C(=S)N(c3ccc(C(=O)OCC)cc3)C(=N)N2/N=C/c2ccccc2)cc1 | inactive | 
25 | CN(CC(=O)Nc1ccc(Cl)cc1)C(=O)c1cccc(S(=O)(=O)NCc2ccccc2)c1 | inactive | 
26 | CC(C)(C)c1cc(C(c2cccnc2)N2CCN(CCO)CC2)cc(C(C)(C)C)c1O (centres undefined) |  | 9.87 µM
27 | CCOC(=O)C1=C(C)NC(=S)N(C(C)=O)C1c1ccc(Cl)cc1 (centres undefined) | inactive | 
28 | CC1CCCCC1N(C)C1CCN(C(=O)CNC(=O)/C=C/c2cccc(Cl)c2)CC1 (centres undefined) | inactive | 
29 | CCOC(=O)C1=C(C)N=c2s/c(=C\c3ccc(OCC(=O)O)cc3)c(=O)n2C1c1ccc(OC(C)C)cc1 (centres undefined) | inactive | 
30 | CCCNC(=O)Cn1sc2nc(C)cc(C)c2c1=O |  | 2.32 µM
31 | O=C(Nc1cccc(-c2nc3cccnc3s2)c1)c1cccnc1Cl | inactive | 
32 | COc1ccc(OC)c(/C=C2\SC(=S)N(C(C(=O)O)c3ccccc3)C2=O)c1 (centres undefined) | inactive | 
33 | O=S(=O)(c1ccc(Cl)cc1)N1CCN(c2ncccn2)CC1 | inactive | 
34 | CC1CCC2(CC1)NC(=S)N(c1ccccc1)N2 (centres undefined) | inactive | 
35 | CCc1nnc(NC(=O)CN2C(=O)c3ccccc3C2=O)s1 | inactive | 
36 | CC(C)C(=O)Nc1nnc(CCN2CCCCC2)s1 | inactive | 
37 | COCCN1Cc2cccc(C(=O)Nc3ccc(-c4nc5ccccc5[nH]4)cc3)c2C1=O | inactive | 
38 | CCOC(=O)/C=C/S(=O)(=O)c1ccc(NC(C)=O)cc1 |  | 5.88 µM
39 | COc1ccccc1-n1cnnc1SCC(=O)NC1CCCC1 | inactive | 
40 | CCOC(=O)/C=C/C(=O)Nc1cccc([N+](=O)[O-])c1 |  | 5.91 µM
41 | O=c1[nH]c2ccccc2c2oc(CCl)nc12 | inactive | 
42 | CCSS(=O)(=O)c1cccc2cccnc12 |  | 5.16 µM
43 | Cc1ccc2sc(C)[n+](CCO)c2c1 | inactive | 
44 | COc1ccc(N2CCN(C(=O)CNC(=O)Cc3ccccc3)CC2)cc1 | inactive | 
45 | COc1ccc(N2CCN(C(=O)CSc3nnc(-c4cccnc4)n3-c3ccccc3)CC2)cc1 | inactive | 
46 | COCC(=O)OCC(=O)Nc1cc(C)c(C)cc1[N+](=O)[O-] | inactive | 

Row | Structure (SMILES) | activity change, negative = inhibition | AC50
47 | Clc1nc(NCc2cccnc2)nc(N2CCOCC2)n1 | inactive | 
48 | O=C(OCc1ccc(Br)cc1)c1ccncc1 | inactive | 
49 | O=C(C1CCOCC1)N1CCCC(N2CCN(c3cccc(C(F)(F)F)c3)CC2)C1 (centres undefined) | inactive | 
50 | COc1ccc(NC(=O)Nc2nnc(-c3cccs3)s2)cc1 | inactive | 
51 | O=C(Nc1ccccc1Cl)c1cc(S(=O)(=O)N2CCCCC2)ccc1N1CCOCC1 | inactive | 
52 | COc1ccc(/C=N/NC(=O)COc2ccc(Cl)cc2Cl)cc1Cn1nc(C)cc1C | inactive | 
53 | O=C(/C=C/c1ccc(Cl)cc1)NCc1ccncc1 | inactive | 
54 | Cc1[nH]n(-c2ccccc2)c(=O)c1C=NC1CCCCC1 | inactive | 
55 | O=C(O)c1ccccc1NS(=O)(=O)c1cccc(-n2sc3ccccc3c2=O)c1 |  | 3.49 µM
56 | COc1ccccc1NC1=C(Cl)C(=O)N(C2CCCCC2)C1=O | inactive | 
57 | CC1Cc2cc(S(=O)(=O)N3CCC(C(=O)N(C)Cc4ccco4)CC3)ccc2N1C(=O)C1CCC1 (centres undefined) | inactive | 
58 | Cc1ccc(CN(C(=O)c2ccccc2C)C2CCS(=O)(=O)C2)o1 (centres undefined) | inactive | 
59 | O=C(O)c1cccc(-n2sc3ccccc3c2=O)c1 |  | 10.5 µM
60 | O=C1Cc2ccccc2Sc2c(OCCN3CCCCC3)cccc21 | inactive | 
61 | CC(C)C(C(=O)Nc1cccnc1)N1C(=O)c2ccccc2C1=O (centres undefined) | inactive | 
62 | CCCC1(c2ccccc2)NC(=O)N(CC(=O)N(C)Cc2c(F)cccc2Cl)C1=O (centres undefined) |  | 2.79 µM
63 | COc1cc2nc(NCCCN3CCN(C)CC3)n3nc(-c4ccccc4)nc3c2cc1OC | inactive | 
64 | COCCNC(=O)C1=C(N)C(C(=O)Nc2ccc(C)c(S(=O)(=O)N3CCCCC3)c2)SC1=Nc1ccc(C)cc1C (centres undefined) | inactive | 
65 | O=C1C(Cl)=C(N2CCOCC2)C(=O)N1c1ccccc1Cl |  | 14.8 µM
66 | Cc1ccccc1N1C(S)=C(C#N)C(=O)NC1c1cccs1 (centres undefined) |  | 17.7 µM
67 | Oc1ccccc1CNc1cnc2ccccc2c1 | inactive | 
68 | N=c1n(CCN2CCCCC2)c2ccccc2n1CC(O)c1ccc(Cl)c(Cl)c1 (centres undefined) | inactive | 
69 | CC(=O)Nc1nnc(CCS(=O)(=O)c2ccc(C)c(C)c2)s1 | inactive | 
